Data reported in article PMC13126685, “Targeting Highly Reactive Oxygen Species (hROS) for Prodrug Activation through a Cascade Reaction with Kinetic Tunability (CReKT) to Effect Linker Cleavage” (Journal of Medicinal Chemistry, 2026).
Read-outs that look alike come from different tables or passages of the source.

Columns and labels:
[1] = Cyclization kinetics of model thioethers and sulfoxides by RP-HPLC; type: physicochemical; settings: for half-life at 200 μM: PBS, pH 7.4, 200 μM in PBS/DMSO (98:2); for half-life at 200 μM / cyclization, result in words: 37 °C, pH 7.4; for cyclization, result in words: 200 μM in PBS/DMSO (98:2)
Experimental: The basic premise of this ROS-sensitive prodrug strategy relies on two properties: (1) the substantial rate enhancement of the cyclization/condensation reaction after oxidation and (2) the ability for ROS to oxidize a thioether to sulfoxide rapidly, which we have recently extensively studied. To examine the first aspect, we studied the rate of cyclization of the thioethers (3a–3g) and sulfoxides (4a–4g) using RP-HPLC (Figure and Figures S1–S5). Briefly, 200 μM thioether or sulfoxide was incubated in PBS (containing 2% DMSO) at 37 °C. Aliquots of the reaction solution were sampled at designated time points for examination of the reaction kinetic profiles. As representative examples, the cases of thioether-sulfoxide pairs 3 a /4a (EWG: −CN), 3 e /4e (EWG: −CONH2), and 3 f /4f (EWG: −CONHC3H7) are described (Figure ). […] As a subsequent step, we were interested in the ability to tune the reaction kinetics and the magnitude of the reaction rate separation between the thioether and sulfoxide analogs. We are especially interested in searching for systems that offer a high degree of separation in reaction kinetics before and after thioether oxidation.
First, 10 mM stock solutions of compound 3 or 4 were prepared in DMSO. […] The resultant solution was kept at 37 °C. […] Either gradient method A or B was used to monitor the reaction.

[2] = ROS-triggered drug release from drug conjugates after oxidation by NaOCl (RP-HPLC); settings: 100 μM conjugate, 150 μM NaOCl, 37 °C, pH 7.4, 20 min
Experimental: Specifically, to study drug release after oxidation by NaOCl, 100 μM of Flox-CReKT 12a was incubated with 150 μM sodium hypochlorite (NaOCl) in PBS (containing 1% DMF) under near-physiological conditions (Figure ). The reaction progress was monitored by RP-HPLC, where 20 μL of the incubated mixture was sampled and analyzed at designated time points (Figure ). Drug release t 1/2 was calculated by plotting the peak area of Flox released against time (Figure a). […] Specifically, oxidation of Flox-CReKT conjugate 12a is designed to lead to sulfoxide analogue 13a, which undergoes cyclization to release the Flox with the formation of the cyclized byproduct (6a) (Figure ).
We used the same protocol as discussed in the previous section of ROS-sensitive drug release to study the effect of pH. […] Furthermore, we used either a citrate- or PBS-based buffer to test the effect of pH on the oxidation step.
To monitor the drug release in the presence of ROS, drug conjugate 12 was incubated with ROS under near-physiological conditions. First, a 10 mM stock solution of the drug conjugate was prepared in DMF. Then, 10 μL was taken from the stock solution and added to 975 μL of the buffer. Then, 15 μL of 10 mM ROS solution was added to the solution. The resultant solution was kept at 37 °C. At different time points, 20 μL was taken from the reaction mixture and injected into HPLC.

[3] = Drug release / stability of drug conjugates in buffer in the absence of ROS (RP-HPLC); type: physicochemical; settings: 100 μM, 37 °C
Experimental: Cellular compartments can have slightly different pH.
To monitor drug release in the absence of ROS, the same procedure of the model compound was followed with a small change of stock solution solvent. For drug conjugates 12, DMF was used to prepare the stock solution. Briefly, a 10 mM stock solution of the drug-conjugated compound was prepared in DMF. […] The resultant solution was kept at 37 °C.

[4] = test system: RS4;11 cells; experiment: Cytotoxicity, CCK-8 assay; type: cell-based; settings: Homo sapiens, RS4-11, 72 h
Experimental: To conduct this set of experiments, a 96-well plate (8 × 12) was used. First, RS4;11 cells were seeded in a 96-well plate 1 day before the experiment (RPMI-1640, containing 10% FBS and 1% PNS). Then, the cells were incubated with different concentrations of compounds with or without the stimulant. Specifically, the final concentrations of compounds were 0.1 pM–100 μM with or without H2O2 (25 μM) stimulation. The plate containing cells were incubated for 72 h at 37 °C with 5% CO2. The cell viability was tested using the CCK-8 assay. Specifically, after 72 h of incubation, 10 μL of the CCK-8 assay reagent was added to each well. Then, the plate was further incubated for 2 h. After that, the plate was gently shaken for 1 min, and then absorbance was recorded at 450 nm. The percentage cell viability was calculated using the following formula: cell viability (%) = ((A 450 of treated wells – A 450 of control wells)/(A 450 of no treatment wells – A 450 of control wells)) × 100. The experiment was conducted in triplicates.

[5] = set-up: method as in number not shown in text; settings: ref number not shown in text; cited from earlier work
[6] = test system: RAW264.7 cells; experiment: Intracellular ROS detection using DCFH-DA fluorescent probe; type: cell-based; settings: 10 μM DCFH-DA, PMA 2 μM or LPS 2 μg/mL, 4 h, λex 495 nm, λem 530 nm
Source text: To correlate the intracellular drug release, we also studied intracellular ROS formation upon stimulation with LPS or PMA or using RAW264.7 cells. We chose one of the widely used fluorescent probes, DCFH-DA, which is the diester version of DCFH capable of cellular penetration. − Subsequent hydrolysis of the ester groups would lead to DCFH, which is not readily cell membrane permeable and thus is trapped intracellularly. […] Similar to the intracellular payload release studies, we used RAW264.7 cells for intracellular ROS determination work. Briefly, 10 μM of DCFH-DA was incubated with and without LPS/PMA. Specifically, three groups were tested with the first being 10 μM of DCFH-DA only, the second being 10 μM of DCFH-DA and 2 μg/mL of LPS, and the third being 10 μM of DCFH-DA and 2 μM of PMA. The cells were incubated for 4 h before fluorescence measurements using a plate reader (λex 495 nm and λem 530 nm). […] Working solutions were prepared by dilution in DMEM (Fluorobright DMEM, containing 1% PNS). DCFH-DA (10 μM) was prepared by adding 4 μL of 10 mM DCFH-DA in 3.996 mL of media. DCFH-DA (10 μM) and LPS (2 μg/mL) were prepared by adding 4 μL of 10 mM DCFH-DA and 4 μL of 2 μg/μL of LPS in 3.994 mL of media. […] Subsequently, the plate was incubated 4 h before fluorescence measurements using a plate reader (λex 495 nm and λem 530 nm). […]

[7] = read-out: t 1/2 (thioether) (3a–g), cyclization (converted)
[8] = read-out: t 1/2 (sulfoxide) (4a–g), cyclization (converted)

COC(=O)c1ccccc1SCC#N [3a, Methyl 2-((Cyanomethyl)thio)benzoate]
half-life at 200 μM [1, 7]: 5 h

COC(=O)c1ccccc1SCC(F)(F)F [3b, Methyl 2-((2,2,2-Trifluoroethyl)thio)benzoate]
cyclization, result in words [1]: did not lead to cyclization
half-life at 200 μM [1, 7]: > 48 h

COC(=O)c1ccccc1SCC(=O)C(C)(C)C [3c, Methyl 2-((3,3-Dimethyl-2-oxobutyl)thio)benzoate]
half-life at 200 μM [1, 7]: 10 h

COC(=O)CSc1ccccc1C(=O)OC [3d, Methyl 2-((2-Methoxy-2-oxoethyl)thio)benzoate]
half-life at 200 μM [1, 7]: 6 h

COC(=O)c1ccccc1SCC(N)=O [3e, Methyl 2-((2-Amino-2-oxoethyl)thio)benzoate]
half-life at 200 μM [1, 7]: > 48 h

CCCNC(=O)CSc1ccccc1C(=O)OC [3f, Methyl 2-((2-Oxo-2-(propylamino)ethyl)thio)benzoate]
cyclization, result in words [1]: no cyclization
cyclization after 5 days, result in words ([1]; near-physiological conditions, 5 days): no significant cyclization

COC(=O)c1ccccc1SCC(=O)O [3g, 2-((2-(Methoxycarbonyl)phenyl)thio)acetic Acid]
cyclization, result in words [1]: cyclization did not happen
half-life at 200 μM [1, 7]: > 48 h

COC(=O)c1ccccc1[S+]([O-])CC#N (stereo not drawn) [4a, Methyl 2-((Cyanomethyl)sulfinyl)benzoate]
half-life at 200 μM [1, 8]: 0.667 h

COC(=O)c1ccccc1[S+]([O-])CC(F)(F)F (stereo not drawn) [4b, Methyl 2-((2,2,2-Trifluoroethyl)sulfiny)benzoate]
cyclization, result in words [1]: did not lead to cyclization
half-life at 200 μM [1, 8]: > 48 h

COC(=O)c1ccccc1[S+]([O-])CC(=O)C(C)(C)C (stereo not drawn) [4c, Methyl 2-((3,3-Dimethyl-2-oxobutyl)sulfinyl)benzoate]
half-life at 200 μM [1, 8]: 1.5 h

COC(=O)C[S+]([O-])c1ccccc1C(=O)OC (stereo not drawn) [4d, Methyl 2-((2-Methoxy-2-oxoethyl)sulfinyl)benzoate]
half-life at 200 μM [1, 8]: 0.667 h

COC(=O)c1ccccc1[S+]([O-])CC(N)=O (stereo not drawn) [4e, Methyl 2-((2-Amino-2-oxoethyl)sulfinyl)benzoate]
half-life at 200 μM [1, 8]: ~2.17 h

CCCNC(=O)C[S+]([O-])c1ccccc1C(=O)OC (stereo not drawn) [4f, Methyl 2-((2-Oxo-2-(propylamino)ethyl)sulfinyl)benzoate]
half-life at 200 μM [1, 8]: 7.5 h

COC(=O)c1ccccc1[S+]([O-])CC(=O)O (stereo not drawn) [4g, 2-((2-(Methoxycarbonyl)phenyl)sulfinyl)acetic Acid]
cyclization, result in words [1]: cyclization did not happen
half-life at 200 μM [1, 8]: > 48 h

N#CCSc1ccccc1C(=O)OC1CC(n2cc(F)c(=O)[nH]c2=O)OC1CO [12a, (2S,3R,5S)-5-(5-Fluoro-2,4-dioxo-3,4-dihydropyrimidin-1(2H)-yl)-2-(hydroxymethyl)tetrahydrofuran-3-yl 2-((Cyanomethyl)thio)benzoate]
Flox released at the 20 min time point [2]: 90%

CCCNC(=O)CSc1ccccc1C(=O)O[C@H]1C[C@H](n2cc(F)c(=O)[nH]c2=O)O[C@@H]1CO [12f, (2R,3S,5R)-5-(5-Fluoro-2,4-dioxo-3,4-dihydropyrimidin-1(2H)-yl)-2-(hydroxymethyl)tetrahydrofuran-3-yl 2-((2-Oxo-2-(propylamino)ethyl)thio)benzoate]
stability in the absence of ROS for up to 72 h ([3]; pH 7.4, 72 h): remained intact
IC50 ([4]; + 25 μM H2O2): 202 ± 3 nM
IC50 ([4]; without H2O2): 197 ± 3 nM

CCc1c2c(nc3ccc(OC(=O)c4ccccc4SCC(N)=O)cc13)-c1cc3c(c(=O)n1C2)COC(=O)[C@]3(O)CC [14e, (S)-4,11-Diethyl-4-hydroxy-3,14-dioxo-3,4,12,14-tetrahydro-1H-pyrano[3′,4’:6,7]indolizino[1,2-b]quinolin-9-yl 2-((2-Amino-2-oxoethyl)thio)benzoate]
SN-38 released within 24 h without oxidation ([3]; pH 7.4, 24 h): about 25%

O=C(O)c1ccccc1C1c2cc(Cl)c(O)cc2Oc2cc(O)c(Cl)cc21 [DCFH]
second-order rate constant of reaction with hypochlorite [5]: 580 ± 18 M^–1 s^–1

CCCCCCCCCCCCCC(=O)O[C@@H]1[C@@H](C)[C@@]2(O)[C@@H](C=C(CO)C[C@]3(O)C(=O)C(C)=C[C@@H]23)[C@@H]2C(C)(C)[C@]12OC(C)=O [PMA, phorbol 12-myristate 13-acetate]
fluorescence intensity of DCFH-DA probe upon stimulation (intracellular ROS) [6]: significantly higher fluorescence intensity

lipopolysaccharides [LPS]
fluorescence intensity of DCFH-DA probe upon stimulation (intracellular ROS) [6]: marginal increase
